SMILES strings stand for the structures. Where two headings read alike, the source gives them in different places.

Holding throughout (assay type): cell-based
Test [1] is described as follows: Hoechst 33342 nuclear staining (48 h read-out). In outline:
(§1)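 Adherent cells pre-spread 24 h before dosing, suspension cells dosed at seeding; compounds at 0.001 μM-10 μM final, 48 h at culture conditions. Hoechst 33342 (2-5 μg/ml) added for 30 min, then fluorescence microscopy scoring of apoptotic nuclear fraction and apoptosis-specific morphology, reported as scores A-D.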

Test [2] relates to tumor cells. Briefly: Hoechst 33342 nuclear staining (48 h read-out). In outline:
as §1

Test [3] in a line: Mitochondrial membrane potential, JC-1 (read-out 48 h). The settings on record: PBL, JC-1, 48 h. In outline:
(§2)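 Tumor cells were treated with test compounds (adherent cells after 24 h of attachment, suspension cells immediately), medium holding up to 5% DMSO. After 48 h, JC-1 (2-5 μg/ml in added medium) was applied for 30 min. Fluorescence microscopy (FITC/TRITC filters) scored the fraction of cells with dissipated mitochondrial membrane potential as categories A-D.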

Test [4] deals with tumor cells. The test is described as above. The settings on record: JC-1, 48 h. The essentials:
as §2

Test [5] in a line: MTS proliferation assay (72 h read-out). The settings on record: MRC5 cells. In outline: (§3)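 Tumour cells (1.5×10^3–10^4 per well) were seeded 24 h before compound addition, then exposed to 0.001–10 μM final compound for 72 h under culture conditions. MTS reagent was added for a further 3 h, absorbance was read at 492 nm, and results were binned into scores A–D.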
In general terms: Tetrazolium assays rely on reduction of a dye to a coloured formazan, in cell work by metabolically active cells.

The test system of test [6] is tumor cells. The experiment in a line: MTS proliferation assay (72 h read-out). The essentials: as §3
Setting [7] is: MRC5 cells, read-out: Hoechst 33342 nuclear staining EC50, MRC5.
The mark [8] stands for this setting: PBL, read-out: Hoechst 33342 nuclear staining EC50, PBL.
[9] abbreviates: HeLa cells, read-out: Hoechst 33342 nuclear staining EC50, HeLa.
The mark [10] stands for this setting: Jily cells, read-out: Hoechst 33342 nuclear staining EC50, Jily.
Setting [11] is: Jurkat cells, read-out: Hoechst 33342 nuclear staining EC50, Jurkat.
Where [12] appears, read: HeLa cells, read-out: Mitochondrial membrane potential (read-out 48 h) HeLa.
[13] abbreviates: Jily cells, read-out: Mitochondrial membrane potential (read-out 48 h) Jily.
Where [14] appears, read: Jurkat cells, read-out: Mitochondrial membrane potential (read-out 48 h) Jurkat.
The mark [15] stands for this setting: MCF7 cells, read-out: Mitochondrial membrane potential (read-out 48 h) MCF7.
The mark [16] stands for this setting: HT1080 cells, read-out: MTS proliferation assay IC50, HT1080.
Setting [17] is: HeLa cells, read-out: MTS proliferation assay IC50, HeLa.
Setting [18] is: Jily cells, read-out: MTS proliferation assay IC50, Jily.
[19] abbreviates: Jurkat cells, read-out: MTS proliferation assay IC50, Jurkat.

As to `Nc1c(C(=O)c2cc(F)ccc2N2CCCCC2)oc2ccc(Cl)cc12` [Example 100], the EC50 in test [1] (setting [7]) is 100 to 1000 nM; in test [1] (setting [8]) it was more than 1000 nM; with tumor cells [2] (setting [9]), 100 to 1000 nM; in the test on tumor cells [2] (setting [10]), 100 to 1000 nM; in the test with tumor cells [2] (setting [11]) it was 10 to 100 nM; in test [3], more than 1000 nM. In addition, the EC50 lay in the range of 100 to 1000 nM in the test with tumor cells [4] (setting [12]), 10 to 100 nM in the test with tumor cells [4] (setting [13]), 10 to 100 nM in the test on tumor cells [4] (setting [14]) and 100 to 1000 nM with tumor cells [4] (setting [15]). For the same compound, the IC50 was 10 to 100 nM in test [5]; 10 to 100 nM in the test on tumor cells [6] (setting [16]); 100 to 1000 nM with tumor cells [6] (setting [17]); 10 to 100 nM with tumor cells [6] (setting [18]); 10 to 100 nM with tumor cells [6] (setting [19]).
As to `Nc1c(C(=O)c2cc(F)ccc2N2CCCCC2)oc2ccc(Cl)cc12` [Example 101], the EC50 was 100 to 1000 nM in test [1] (setting [7]); more than 1000 nM in test [1] (setting [8]); 100 to 1000 nM in the test on tumor cells [2] (setting [9]); 100 to 1000 nM in the test on tumor cells [2] (setting [10]); 10 to 100 nM with tumor cells [2] (setting [11]); more than 1000 nM in test [3]. In addition, the EC50 in the test with tumor cells [4] (setting [12]) was 100 to 1000 nM; in the test with tumor cells [4] (setting [13]) it was 10 to 100 nM; with tumor cells [4] (setting [14]), 10 to 100 nM; with tumor cells [4] (setting [15]) it was 100 to 1000 nM. Moreover, the IC50 in test [5] fell in the range of 100 to 1000 nM; in the test with tumor cells [6] (setting [16]), 10 to 100 nM; in the test with tumor cells [6] (setting [17]) it was 100 to 1000 nM; in the test with tumor cells [6] (setting [18]), 100 to 1000 nM; with tumor cells [6] (setting [19]) it was 10 to 100 nM.
Consider `CN1CCN(c2ccc(F)cc2C(=O)c2oc3ccc(Cl)cc3c2N)CC1` [Example 102], for which the EC50 (in test [1] (setting [7]); in test [1] (setting [8]); in the test on tumor cells [2] (setting [9]); with tumor cells [2] (setting [10]); in the test with tumor cells [2] (setting [11]); in test [3]) was more than 1000 nM in each case. Further, the EC50 in the test on tumor cells [4] (setting [12]), in the test with tumor cells [4] (setting [13]), in the test with tumor cells [4] (setting [14]) and with tumor cells [4] (setting [15]) was more than 1000 nM in each case. In addition, the IC50 in test [5] was more than 1000 nM; in the test on tumor cells [6] (setting [16]), more than 1000 nM; with tumor cells [6] (setting [17]) it was more than 1000 nM; with tumor cells [6] (setting [18]) it was more than 1000 nM; in the test on tumor cells [6] (setting [19]) it was 100 to 1000 nM.
In the case of `Nc1c(C(=O)c2cc(F)ccc2N2CC=CCC2)oc2ccc(Cl)cc12` [Example 103], the EC50 in test [1] (setting [7]) was 10 to 100 nM; in test [1] (setting [8]) it was more than 1000 nM; in the test on tumor cells [2] (setting [9]) it was 10 to 100 nM; in the test with tumor cells [2] (setting [10]), 10 to 100 nM; with tumor cells [2] (setting [11]), 10 to 100 nM; in test [3] it was more than 1000 nM. The EC50 in the test with tumor cells [4] (setting [12]), with tumor cells [4] (setting [13]), in the test with tumor cells [4] (setting [14]) and in the test with tumor cells [4] (setting [15]) was 10 to 100 nM in each case. The IC50 (in test [5]; in the test with tumor cells [6] (setting [16]); with tumor cells [6] (setting [17]); in the test on tumor cells [6] (setting [18]); in the test on tumor cells [6] (setting [19])) was 10 to 100 nM each time.
For `CC1CCCN(c2ccc(F)cc2C(=O)c2oc3ccc(Cl)cc3c2N)C1` (stereo not drawn) [Example 104], the EC50 was 100 to 1000 nM in test [1] (setting [7]); more than 1000 nM in test [1] (setting [8]); 100 to 1000 nM in the test with tumor cells [2] (setting [9]); 100 to 1000 nM in the test on tumor cells [2] (setting [10]); 100 to 1000 nM in the test with tumor cells [2] (setting [11]); more than 1000 nM in test [3]. Also, the EC50 in the test with tumor cells [4] (setting [12]), in the test on tumor cells [4] (setting [13]), with tumor cells [4] (setting [14]) and in the test on tumor cells [4] (setting [15]) was 100 to 1000 nM in each case. For the same compound, the IC50 (in test [5]; with tumor cells [6] (setting [16]); in the test on tumor cells [6] (setting [17]); in the test on tumor cells [6] (setting [18]); with tumor cells [6] (setting [19])) was 100 to 1000 nM each time.
As to `COc1ccc2oc(C(=O)c3cc(F)ccc3-n3ccnc3)cc2c1` [Example 105], the EC50 (in test [1] (setting [7]); in test [1] (setting [8]); with tumor cells [2] (setting [9]); in the test on tumor cells [2] (setting [10]); with tumor cells [2] (setting [11]); in test [3]) was more than 1000 nM throughout. Besides, the EC50 in the test with tumor cells [4] (setting [12]), in the test on tumor cells [4] (setting [13]), in the test on tumor cells [4] (setting [14]) and in the test with tumor cells [4] (setting [15]) was more than 1000 nM throughout. For the same compound, the IC50 (in test [5]; in the test on tumor cells [6] (setting [16]); in the test on tumor cells [6] (setting [17]); in the test with tumor cells [6] (setting [18]); in the test with tumor cells [6] (setting [19])) was more than 1000 nM in each case.

Source of the values: patent US8486996B2, “Aroylfuranes and aroylthiophenes” (Basilea Pharmaceutica AG, priority 2006, dated 2013).
